In US10858366B2 (priority 2016, dated 2020) one finds EC50 data, which are given here for 22 molecules.

This assay addresses RNP_CAL (PB2, PB1, PA, NP, influenza A Luciferase reporter in 293T cells) (Influenza A virus (strain swl A/California/04/2009 H1N1), UniProt C3W5S0). Nature of the assay: cell-based.

The structures appear in SMILES notation.

Broadly, the EC50 is the concentration giving half of the maximal effect. In turn, `Cc1ccccc1[C@H](c1ccc(F)cc1Br)[C@H]1Cn2ccnc2-c2c(O)c(=O)cnn21` [Example 35, (S)-6-((R)-(2-bromo-4-fluorophenyl)(o-tolyl)methyl)-11-hydroxy-5,6-dihydro-10H-imidazo[2′,1′:3,4]pyrazino[1,2-b]pyridazin-10-one] yielded an EC50 of 50 nM. This counts as double-digit nanomolar.

`CC(O)c1cnc2n1C[C@H](C(c1ccccc1)c1ccccc1)n1ccc(=O)c(O)c1-2` (stereo partly drawn) [Example 55, (6S)-6-benzhydryl-11-hydroxy-3-(1-hydroxyethyl)-5H-imidazo[1,2-a]pyrido[2,1-c]pyrazin-10(6H)-one] yielded an EC50 of 1700 nM. Consider `O=c1cnn2c(c1O)-c1nccn1C[C@@H]2C(c1ccc(F)cc1)c1ccc(F)cc1` [Example 22, (S)-6-(bis(4-fluorophenyl)methyl)-11-hydroxy-5,6-dihydro-10H-imidazo[2′,1′:3,4]pyrazino[1,2-b]pyridazin-10-one], for which the EC50 amounted to 82 nM. Compared with the last molecule, the EC50 is about 21-fold lower. As for `O=c1cnn2c(c1O)-c1nccn1C[C@H]2C(c1cccc(Cl)c1)c1cccc(Cl)c1` [Example 16, (R)-6-(bis(3-chlorophenyl)methyl)-11-hydroxy-5H-imidazo[2′,1′:3,4] pyrazino [1,2-b]pyridazin-10(6H)-one], the figure is 820 nM; as for `N#Cc1cnc2n1C[C@H](C(c1ccc(F)cc1)c1ccc(F)cc1)n1ncc(=O)c(O)c1-2` [Example 49, (S)-6-(bis(4-fluorophenyl)methyl)-11-hydroxy-10-oxo-5,6-dihydro-10H-imidazo[2′,1′:3,4]pyrazino[1,2-b]pyridazine-3-carbonitrile], 820 nM; as for `O=c1ccn2c(c1O)-c1nccn1C1(COC1)N2C1c2ccccc2CSc2ccccc21` (stereo not shown) [Example 80, 6-(6,11-dihydrodibenzo[b,e]thiepin-11-yl)-11-hydroxy-6H,10H-spiro[imidazo[1,2-d]pyrido[2,1-f][1,2,4]triazine-5,3′-oxetan]-10-one], 10 nM. As for `N#Cc1ccccc1[C@H](c1ccc(F)cc1)[C@H]1Cn2ccnc2-c2c(O)c(=O)cnn21` [Example 44, 2-((S)-(4-fluorophenyl)((S)-11-hydroxy-10-oxo-5,6-dihydro-10H-imidazo[2′,1′:3,4]pyrazino[1,2-b]pyridazin-6-yl)methyl)benzonitrile], the figure is 300 nM. To `O=c1cnn2c(c1O)-c1nc(Br)c(Br)n1C[C@@H]2C(c1ccc(F)cc1)c1ccc(F)cc1` [Example 48, (S)-6-(bis(4-fluorophenyl)methyl)-2,3-dibromo-11-hydroxy-5,6-dihydro-10H-imidazo[2′,1′:3,4]pyrazino[1,2-b]pyridazin-10-one] belongs 4300 nM; to `O=c1cnn2c(c1O)-c1nccn1C[C@@H]2[C@@H](c1ccc(F)cc1)c1cccc(Cl)c1` [Example 31, (S)-6-((S)-(3-chlorophenyl)(4-fluorophenyl)methyl)-11-hydroxy-5,6-dihydro-10H-imidazo[2′,1′:3,4]pyrazino[1,2-b]pyridazin-10-one], 37 nM. `COC(=O)OCOc1c2n(ncc1=O)[C@@H](C(c1ccc(F)cc1)c1ccc(F)cc1)Cn1ccnc1-2` [Example 88, (S)-((6-(bis(4-fluorophenyl)methyl)-10-oxo-5,6-dihydro-10H-imidazo[2′,1′:3,4]pyrazino[1,2-b]pyridazin-11-yl)oxy)methyl methyl carbonate]: a half-maximal effect (EC50) was put at 42 nM.

For `O=C(c1cnc2n1C[C@H](C(c1ccccc1)c1ccccc1)n1ccc(=O)c(O)c1-2)N1CCCC1` [Example 72, (S)-6-benzhydryl-11-hydroxy-3-(pyrrolidine-1-carbonyl)-5,6-dihydro-10H-imidazo[1,2-a]pyrido[2,1-c]pyrazin-10-one], the response was half-maximal at 1700 nM (EC50). As for `O=c1ccn2c(c1O)-c1nccn1CN2C1c2ccccc2CSc2ccccc21` (stereo not shown) [Example 74, 6-(6,11-dihydrodibenzo[b,e]thiepin-11-yl)-11-hydroxy-5,6-dihydro-10H-imidazo[1,2-d]pyrido[2,1-f][1,2,4]triazin-10-one], the figure is 84 nM; as for `O=c1cnn2c(c1O)-c1nccn1C[C@@H]2[C@H](c1cccc(F)c1)c1ccc(F)cc1Br` [Example 36, (S)-6-((R)-(2-bromo-4-fluorophenyl)(3-fluorophenyl)methyl)-11-hydroxy-5,6-dihydro-10H-imidazo[2′,1′:3,4]pyrazino[1,2-b]pyridazin-10-one], 27 nM; as for `O=c1cnn2c(c1O)-c1nccn1C[C@@H]2[C@@H](c1ccc(F)cc1)c1ccccc1Cl` [Example 29, (S)-6-((S)-(2-chlorophenyl)(4-fluorophenyl)methyl)-11-hydroxy-5,6-dihydro-10H-imidazo[2′,1′:3,4]pyrazino[1,2-b]pyridazin-10-one], 72 nM. As for `O=c1ccn2c(c1O)-c1ncc(CN3CCSCC3)n1C[C@@H]2C(c1ccccc1)c1ccccc1` [Example 62, (S)-6-benzhydryl-11-hydroxy-3-(thiomorpholinomethyl)-5,6-dihydro-10H-imidazo[1,2-a]pyrido[2,1-c]pyrazin-10-one], the figure is 640 nM. As for `CS(=O)(=O)c1cccc([C@H](c2ccc(F)cc2)[C@H]2Cn3ccnc3-c3c(O)c(=O)cnn32)c1` [Example 42, (S)-6-((S)-(4-fluorophenyl)(3-(methylsulfonyl)phenyl)methyl)-11-hydroxy-5,6-dihydro-10H-imidazo[2′,1′:3,4]pyrazino[1,2-b]pyridazin-10-one], the figure is 2800 nM; as for `O=c1cnn2c(c1O)-c1nccn1C[C@@H]2[C@H](c1ccc(F)cc1)c1cccc(F)c1` [Example 26, (S)-6-((R)-(3-fluorophenyl)(4-fluorophenyl)methyl)-11-hydroxy-5,6-dihydro-10H-imidazo[2′,1′:3,4]pyrazino[1,2-b]pyridazin-10-one], 38 nM.

`CSc1cccc([C@H](c2ccc(F)cc2)[C@H]2Cn3ccnc3-c3c(O)c(=O)cnn32)c1` [Example 28, (S)-6-((S)-(4-fluorophenyl)(3-(methylthio)phenyl)methyl)-11-hydroxy-5,6-dihydro-10H-imidazo[2′,1′:3,4]pyrazino[1,2-b]pyridazin-10-one] returned an EC50 of 81 nM. Against the preceding molecule, the EC50 is about 2.1-fold higher.

As for `O=c1ccn2c(c1O)-c1ncoc1CN2C(c1ccccc1)c1ccccc1` [Example 83, 5-benzhydryl-10-hydroxy-4,5-dihydro-9H-oxazolo[4,5-d]pyrido[1,2-b]pyridazin-9-one], the EC50 turned out to be 970 nM.

In the case of `O=c1cnn2c(c1O)-c1ncc(CO)n1C[C@@H]2C(c1ccc(F)cc1)c1ccc(F)cc1` [Example 50, (S)-6-(bis(4-fluorophenyl)methyl)-11-hydroxy-3-(hydroxymethyl)-5,6-dihydro-10H-imidazo[2′,1′:3,4]pyrazino[1,2-b]pyridazin-10-one], the EC50 turned out to be 100 nM. As for `O=c1ccn2c(c1O)-c1ocnc1CN2C(c1ccccc1)c1ccccc1` [Example 84, 5-benzhydryl-10-hydroxy-4,5-dihydro-9H-oxazolo[5,4-d]pyrido[1,2-b]pyridazin-9-one], the figure is 11000 nM. As for `C[C@@H](NCc1cnc2n1C[C@H](C(c1ccccc1)c1ccccc1)n1ccc(=O)c(O)c1-2)C(F)(F)F` [Example 66, (S)-6-benzhydryl-11-hydroxy-3-((((R)-1,1,1-trifluoropropan-2-yl)amino)methyl)-5,6-dihydro-10H-imidazo[1,2-a]pyrido[2,1-c]pyrazin-10-one], the figure is 310 nM.
